Laboratory results reported in patent publication US8318947B2, “Comestible compositions comprising high potency savory flavorants, and processes for producing them” (Senomyx, Inc., priority 2006, dated 2012).

Tests used:
[1] = biological target: T1, hT1R1/hT1R3 umami receptor expressed in an HEK293 cell line (Homo sapiens, UniProt Q7RTX0+Q7RTX1); assay: Umami taste enhancement assay (EC50 ratio vs. MSG); assay type: cell-based
T1 construct: expressed in transfected cells; host or cells: HEK293 cell line derivative, clone 1-17, expression induced with mifepristone
T1 sequence (Q7RTX1 21-841): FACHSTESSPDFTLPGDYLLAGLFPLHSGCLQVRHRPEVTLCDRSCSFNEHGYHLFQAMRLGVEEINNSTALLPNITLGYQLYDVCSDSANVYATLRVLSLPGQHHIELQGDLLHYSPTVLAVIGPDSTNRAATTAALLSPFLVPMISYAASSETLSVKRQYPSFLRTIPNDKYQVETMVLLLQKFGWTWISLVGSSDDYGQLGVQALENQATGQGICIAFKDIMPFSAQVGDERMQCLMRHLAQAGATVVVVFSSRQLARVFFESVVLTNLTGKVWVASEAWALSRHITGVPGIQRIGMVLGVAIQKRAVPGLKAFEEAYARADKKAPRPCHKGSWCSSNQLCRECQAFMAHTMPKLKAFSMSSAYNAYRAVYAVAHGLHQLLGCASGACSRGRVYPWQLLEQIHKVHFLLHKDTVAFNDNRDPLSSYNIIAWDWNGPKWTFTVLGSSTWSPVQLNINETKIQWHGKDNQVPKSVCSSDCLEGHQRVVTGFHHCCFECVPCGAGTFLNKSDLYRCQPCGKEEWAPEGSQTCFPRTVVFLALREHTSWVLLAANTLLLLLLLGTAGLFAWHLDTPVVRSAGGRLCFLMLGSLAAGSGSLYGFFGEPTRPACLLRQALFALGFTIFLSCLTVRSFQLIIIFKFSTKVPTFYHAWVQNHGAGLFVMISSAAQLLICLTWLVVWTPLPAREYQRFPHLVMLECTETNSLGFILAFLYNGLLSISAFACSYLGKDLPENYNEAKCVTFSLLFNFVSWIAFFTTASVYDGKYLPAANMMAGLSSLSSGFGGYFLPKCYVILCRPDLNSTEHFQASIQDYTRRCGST
T1 sequence (Q7RTX0 21-852): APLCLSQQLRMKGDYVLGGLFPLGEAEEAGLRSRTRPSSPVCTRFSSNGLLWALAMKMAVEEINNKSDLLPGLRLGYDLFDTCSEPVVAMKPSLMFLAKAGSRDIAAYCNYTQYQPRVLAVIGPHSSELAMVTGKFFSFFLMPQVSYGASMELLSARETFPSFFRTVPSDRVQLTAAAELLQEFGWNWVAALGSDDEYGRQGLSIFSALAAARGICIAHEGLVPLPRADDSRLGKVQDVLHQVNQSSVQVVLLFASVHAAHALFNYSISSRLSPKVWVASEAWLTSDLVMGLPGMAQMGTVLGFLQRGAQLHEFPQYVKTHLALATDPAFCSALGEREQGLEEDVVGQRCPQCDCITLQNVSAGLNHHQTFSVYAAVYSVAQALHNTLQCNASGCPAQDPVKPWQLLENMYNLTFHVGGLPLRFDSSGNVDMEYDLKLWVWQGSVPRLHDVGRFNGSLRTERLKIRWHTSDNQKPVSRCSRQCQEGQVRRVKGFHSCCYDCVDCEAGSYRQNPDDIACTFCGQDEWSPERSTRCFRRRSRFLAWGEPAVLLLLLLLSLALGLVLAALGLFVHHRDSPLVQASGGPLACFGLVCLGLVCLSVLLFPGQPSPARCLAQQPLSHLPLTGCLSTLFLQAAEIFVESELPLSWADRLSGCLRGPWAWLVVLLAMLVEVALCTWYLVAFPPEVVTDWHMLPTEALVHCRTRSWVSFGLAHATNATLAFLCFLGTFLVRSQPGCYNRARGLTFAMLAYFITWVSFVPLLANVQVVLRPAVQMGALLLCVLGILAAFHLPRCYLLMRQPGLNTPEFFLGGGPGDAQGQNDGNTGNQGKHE
Source text: In umami taste enhancement activity assay experiments, which produce an “EC50 ratio” measurement of how effectively the amide compounds of the invention enhance the savory flavorant (typically MSG) already in a test solution. A series of measurements of the dose response is run in solutions comprising MSG alone, then a second dose response is run with MSG in combination with predetermined amounts of a candidate compound of Formula (I) at the same time.
In this assay, increasing concentrations of monosodium glutamate (ranging from 12 μM to 81 mM) were presented, in duplicates, in the presence or absence of a fixed concentration of the test compound. Typical compound concentrations tested were 30 μM, 10 μM, 3 μM, 1 μM, 0.3 μM, 0.1 μM and 0.03 μM. The relative efficacy of compounds of […] at enhancing the receptor was determined by calculating the magnitude of a shift in the EC50 for monosodium glutamate. Enhancement was defined as a ratio (EC50R) corresponding to the EC50 of monosodium glutamate, determined in the absence of the test compound, divided by the EC50 of monosodium glutamate, determined in the presence of the test compound.
Stated alternatively, “EC50 ratio” as compared to MSG is calculated based on the following definitions:
EC50 Ratio vs. MSG=EC50 (MSG)/EC50 (MSG+[Compound]) wherein “[compound]” refers to the concentration of the compound of Formula (I) used to elicit (or enhance or potentiate) the MSG dose response.
It should be noted that the EC50 ratio measured can depend somewhat on the concentration of the compound itself. Preferred savory enhancers would have a high EC50 Ratio vs. MSG at a low concentration of the compound used.

[2] = system: human panelists, savory taste; assay: Savory taste test with trained human panel (difference from reference); assay type: in vivo; conditions: for Taste Data: cpd concentration at which 12 mM MSG + cpd is as strong as 12 mM MSG + 100 μM IMP: with 12 mM MSG, reference 12 mM MSG + 100 μM IMP; for Taste Data: cpd concentration as strong as 12 mM MSG: compound alone, without MSG
Description: General Panelist Selection: Basic screening of sensory taste testers: Potential panelists were tested for their abilities to rank and rate intensities of solutions representing the five basic tastes. Panelists ranked and rated intensity of five different concentrations of each of the five following compounds: sucrose (sweet), sodium chloride (salty), citric acid (sour), caffeine (bitter), and monosodium glutamate (savory). In order to be selected for participation in testing, panelists needed to correctly rank and rate samples for intensity, with a reasonable number of errors.
Preliminary Taste Tests: The panelists selected in the above procedure were deemed qualified for performing Preliminary Taste Testing procedures. The preliminary taste tests are used to evaluate new compounds for intensity of basic tastes and off-tastes. A small group of panelists (n=5) taste approximately 5 concentrations of the compound (range typically between 1-100 μM, in half-log cycles, e.g., 1, 3, 10, 30, and 100 μM) in water and in a solution of 12 mM MSG to evaluate enhancement. Panelists rate the five basic tastes (sweet, salty, sour, bitter, and savory) as well as off-tastes (such as chemical, metallic, sulfur) on a labeled magnitude scale. Samples are served in 10 mL portions at room temperature. The purpose of the test is to determine the highest concentration at which there is no objectionable off-taste, and determine if obvious savory taste or enhancement of savory taste exists at any of the concentrations tested.
Trained Panelist Selection: A trained expert panel was used to further evaluate compounds that had been tested with the preliminary taste test.
Panelists for the trained panel were selected from the larger group of qualifying taste panelists. Panelists were further trained on savory taste by ranking and rating experiments using MSG and IMP combinations. Panelists completed a series of ranking, rating, and difference from reference tests with savory solutions. In ranking and rating experiments, panelists evaluated easy MSG concentrations (0, 6, 18, 36 mM) and more difficult MSG concentrations (3, 6, 12, 18 mM MSG) in water.
Compound testing with Trained Panel: Compounds tested by the trained panel were evaluated in difference from reference experiments. […] Test samples were solutions with varying amounts of MSG, IMP, and the compound. Typically, each session compares the reference sample to numerous test samples. […] Compounds were tested against the reference in samples with and without 12 mM MSG. All samples were presented in 10 ml volumes at room temperature. Two sessions were completed for each compound tested to evaluate panel reproducibility.

[3] = system: trained tasters, savory, salt, spice flavors; assay: Italian sausage rank-rating intensity taste test; assay type: in vivo, human; conditions: scale 0-10, ten tasters
Source text: Three different dry Italian sausage seasoning mixes were formulated by dry blending the ingredients shown in the Tables below, then rehydrated during the formulation of corresponding sausages. One control sample of seasoning mix (Tables 36-1a, b) contained no MSG, and no compounds of the invention. A second sample of seasoning mix and sausage contained added MSG (Tables 36-2a, b). A third sample of Seasoning mix and corresponding sausage also contained added savory flavor concentrate compositions (prepared as per Example 34) containing (0.1% wt/wt) of compounds 1 and 24 ([…]).
Ten trained tasters were trained to identify the relative intensities of the following taste attributes: salty, savory/meaty, umami, brothiness, bitter, linger and off flavors. A rank-rating intensity test was used to evaluate the Italian Sausagesamples. A rank rating is a difference test to determine whether a sensory difference is perceived between various samples. Samples that were evaluated were the Italian Sausage no MSG, Italian sausage with MSG, Italian sausage with compounds 1 and 24 but no MSG. The panelists evaluated 3 randomized, blind coded samples of one ounce of Italian sausage served at 140° F., and ranked the intensity of savory, salt, spice flavors on a scale of 0-10: 0 being the least intense and 10 being the most intenese, and the scores were averaged for individual category.

| SMILES | melting point | Taste Data: cpd concentration at which 12 mM MSG + cpd is as strong as 12 mM MSG + 100 μM IMP [2] | further results |
| --- | --- | --- | --- |
| COC(=O)[C@@H](CC(C)C)NC(=O)c1ccc(OC)c(Cl)c1 [Example 16, (R)-methyl 2-(3-chloro-4-methoxybenzamido)-4-methylpentanoate] |  |  | EC50 ratio (enhancement of the effectiveness of monosodium glutamate) ([1]; compound present at 0.01 μM): 13.18 |
| CCCC(CCC)NC(=O)c1ccc2c(c1)OC(C)O2 (stereo not drawn) [Example 9, N-(heptan-4-yl)-2-methylbenzo[d][1,3]dioxole-5-carboxamide] |  |  | EC50 ratio (enhancement of the effectiveness of monosodium glutamate) ([1]; compound present at 0.03 μM): 3.68 |
| Cc1ccc(CNC(=O)C(=O)NCCc2ccccn2)cc1 [Example 25, N-(4-methyl-benzyl)-N′-(2-pyridin-2-yl-ethyl)-oxalamide] | 152 to 154 °C |  |  |
| COC(=O)[C@@H](CC(C)C)NC(=O)c1cc(OC)nc(OC)c1 [Example 20, (R)-methyl 2-(2,6-dimethoxyisonicotinamido)-4-methylpentanoate] |  | 12 mM MSG + 3 μM cpd as |  |
| COc1cc(C)ccc1CNC(=O)C(=O)NCCc1ccccn1 [Example 26, N-(2-methoxy-4-methylbenzyl)-N′-(2-(pyridin-2-yl)ethyl)oxalamide] | 128 to 131 °C | 12 mM MSG + 1 μM cpd as | Taste Data: cpd concentration as strong as 12 mM MSG [2]: 1 μM cpd as strong as |
| COC(=O)[C@@H](CC(C)C)NC(=O)c1cc(C)c(C)o1 [Example 19, (R)-methyl 2-(2,3-dimethylfuran-5-carboxamido)-4-methylpentanoate] |  | 12 mM MSG + 10 μM cpd as |  |
| COc1ccc2c(c1)CCC2NC(=O)c1ccc(OC)c(C)c1 (racemic) [Example 22, (R/S)-4-Methoxy-N-(5-methoxy-2,3-dihydro-1H-inden-1-yl)-3-methylbenzamide] |  | 12 mM MSG + 1 μM cpd as | Taste Data: cpd concentration as strong as 12 mM MSG [2]: 1 μM cpd as strong as |
| COC(=O)[C@@H](CC(C)C)NC(=O)c1ccc2c(c1)OCO2 [Example 5, (R)-methyl 2-(benzo[d][1,3]dioxole-6-carboxamido)-4-methylpentanoate] |  | 12 mM MSG + 10 μM cpd as | EC50 ratio (enhancement of the effectiveness of monosodium glutamate) ([1]; compound present at 0.1 μM): 4.9 |
| CCOc1ccc(CNC(=O)C(=O)NCCc2ccccn2)c(OC)c1 [Example 28, N-(4-ethoxy-2-methoxybenzyl)-N′-(2-(pyridin-2-yl)ethyl)oxalamide] | 117 to 118 °C |  |  |
| Cc1ccc(CNC(=O)C(=O)NCCc2ccccn2)c(C)c1 [Example 27, N-(2,4-dimethylbenzyl)-N′-(2-(pyridin-2-yl)ethyl)oxalamide] | 148 to 149 °C |  |  |
| COC[C@@H](CC(C)C)NC(=O)c1ccc(C)c(C)c1 [Example 18, (R)—N-(1-methoxy-4-methylpentan-2-yl)-3,4-dimethylbenzamide] |  | 12 mM MSG + 3 μM cpd as |  |
| N[C@@H](CCC(=O)O)C(=O)[O-].[Na+] [MSG, monosodium glutamate] |  |  | Average score Salt [3]: 5.24; Average score Savory [3]: 6.13; Average score Spice [3]: 5.42 |
| COc1ccccc1CNC(=O)C(=O)NCCc1ccccn1 [Example 23, N-(2-Methoxy-benzyl)-N′-(2-pyridin-2-yl-ethyl)-oxalamide] | 118 to 119 °C |  | EC50 ratio (enhancement of the effectiveness of monosodium glutamate) ([1]; compound present at 0.3 μM): 18.85 |
| CC1CCCC(NC(=O)c2ccc3c(c2)OCO3)C1C (stereo not drawn) [Example 4] |  |  | EC50 ratio (enhancement of the effectiveness of monosodium glutamate) ([1]; compound present at 1 μM): 8.4 |
